The source of these data is ChEMBL document CHEMBL5465560, “Selectivity Literature for EUbOPEN Chemogenomic Library” (2024).

Assay [1] deals with Histone-lysine N-methyltransferase SETD2 (Homo sapiens) (UniProt Q9BYW2). Nature of the assay: Selectivity interaction (Methyltransferase screen (radiometric assays, panel of 8 PRMTs, 21 protein lysine methyltransferases, 3 DNA methyltransferases, and one RNA methyltransferase)) EUB0000271b SETD2.
Assay [2] has as its target Serine/threonine-protein kinase/endoribonuclease IRE1 (Homo sapiens) (UniProt O75460). The assay is described as follows: Selectivity interaction (KinomeScan (DiscoverX)) EUB0000607a ERN1. The settings on record: at 10 µM.
For assay [3], the target named is Serine/threonine-protein kinase pim-2 (Homo sapiens, UniProt Q9P1W9). The settings on record: at 10 µM.
Assay [4] addresses Tyrosine-protein kinase CSK (Homo sapiens) (UniProt P41240). The following applies: at 10 µM.
Assay [5] deals with T1, 3-phosphoinositide-dependent protein kinase 1 (Homo sapiens) (UniProt O15530).
T1 sequence (whole entry): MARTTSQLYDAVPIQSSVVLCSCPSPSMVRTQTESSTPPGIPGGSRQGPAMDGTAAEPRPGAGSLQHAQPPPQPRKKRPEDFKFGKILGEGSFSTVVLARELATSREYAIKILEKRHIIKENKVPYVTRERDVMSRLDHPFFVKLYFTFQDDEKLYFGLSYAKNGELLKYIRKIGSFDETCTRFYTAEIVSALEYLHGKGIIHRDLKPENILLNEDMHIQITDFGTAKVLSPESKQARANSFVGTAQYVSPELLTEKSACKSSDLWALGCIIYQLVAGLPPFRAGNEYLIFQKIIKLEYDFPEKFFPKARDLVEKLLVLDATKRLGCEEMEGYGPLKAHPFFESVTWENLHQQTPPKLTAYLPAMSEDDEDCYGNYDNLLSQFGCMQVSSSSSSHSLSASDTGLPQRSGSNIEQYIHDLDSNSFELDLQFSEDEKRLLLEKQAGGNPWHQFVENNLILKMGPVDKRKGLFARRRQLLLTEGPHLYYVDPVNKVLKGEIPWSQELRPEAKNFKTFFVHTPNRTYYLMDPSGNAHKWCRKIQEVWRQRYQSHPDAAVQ
The settings on record: at 10 µM.

The target in assay [6] is T2, Phosphatidylinositol 5-phosphate 4-kinase type-2 gamma (Homo sapiens) (UniProt Q8TBX8).
T2 sequence (whole entry): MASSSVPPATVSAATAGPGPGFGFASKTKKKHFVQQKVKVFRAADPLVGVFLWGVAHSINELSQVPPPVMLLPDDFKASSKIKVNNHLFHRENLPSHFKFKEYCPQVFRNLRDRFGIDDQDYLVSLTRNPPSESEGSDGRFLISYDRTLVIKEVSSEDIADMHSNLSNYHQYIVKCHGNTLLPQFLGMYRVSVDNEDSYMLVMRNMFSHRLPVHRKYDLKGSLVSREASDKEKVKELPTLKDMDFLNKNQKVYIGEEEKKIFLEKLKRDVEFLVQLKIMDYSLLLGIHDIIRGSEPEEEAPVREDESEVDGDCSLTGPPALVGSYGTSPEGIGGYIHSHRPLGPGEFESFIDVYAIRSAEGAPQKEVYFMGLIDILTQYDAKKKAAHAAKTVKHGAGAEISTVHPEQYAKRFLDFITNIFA
Nature of the assay: Selectivity interaction (KinomeScan (DiscoverX)) EUB0001049a PIP4K2C. The settings on record: at 1 µM.

For assay [7], the target named is Ribosomal protein S6 kinase alpha-4 (Homo sapiens) (UniProt O75676). The assay is described as follows: Selectivity interaction (ProQinase) EUB0000171b RPS6KA4.
The target of assay [8] is T3, Protein kinase C iota type (Homo sapiens) (UniProt P41743).
T3 sequence (whole entry): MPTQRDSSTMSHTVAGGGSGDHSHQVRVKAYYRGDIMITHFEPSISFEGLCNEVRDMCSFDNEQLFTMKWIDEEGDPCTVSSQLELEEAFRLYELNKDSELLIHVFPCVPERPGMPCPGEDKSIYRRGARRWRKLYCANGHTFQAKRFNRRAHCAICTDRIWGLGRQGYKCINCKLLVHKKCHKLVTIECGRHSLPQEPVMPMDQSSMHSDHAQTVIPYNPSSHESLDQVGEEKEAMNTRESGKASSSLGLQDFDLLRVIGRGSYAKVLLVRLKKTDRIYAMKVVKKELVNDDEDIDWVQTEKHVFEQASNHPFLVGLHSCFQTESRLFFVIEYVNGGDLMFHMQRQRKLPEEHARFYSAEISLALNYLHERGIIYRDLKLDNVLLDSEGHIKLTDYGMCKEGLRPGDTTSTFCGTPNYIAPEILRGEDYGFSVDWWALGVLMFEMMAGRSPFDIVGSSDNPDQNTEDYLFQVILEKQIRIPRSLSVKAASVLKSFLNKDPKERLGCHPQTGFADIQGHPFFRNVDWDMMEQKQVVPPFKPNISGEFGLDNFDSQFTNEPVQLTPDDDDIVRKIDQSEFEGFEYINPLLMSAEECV
The assay is described as follows: Selectivity interaction (KinomeScan (DiscoverX)) EUB0000045b PRKCI.

Assay [9] deals with Insulin receptor-related protein (Homo sapiens) (UniProt P14616). Nature of the assay: Selectivity interaction (Upstate Kinase Profiler service (Millipore)) EUB0000056c INSRR. The following applies: at 1 µM.

Sequence of Histone-lysine N-methyltransferase SETD2 (Homo sapiens) (Q9BYW2 whole entry): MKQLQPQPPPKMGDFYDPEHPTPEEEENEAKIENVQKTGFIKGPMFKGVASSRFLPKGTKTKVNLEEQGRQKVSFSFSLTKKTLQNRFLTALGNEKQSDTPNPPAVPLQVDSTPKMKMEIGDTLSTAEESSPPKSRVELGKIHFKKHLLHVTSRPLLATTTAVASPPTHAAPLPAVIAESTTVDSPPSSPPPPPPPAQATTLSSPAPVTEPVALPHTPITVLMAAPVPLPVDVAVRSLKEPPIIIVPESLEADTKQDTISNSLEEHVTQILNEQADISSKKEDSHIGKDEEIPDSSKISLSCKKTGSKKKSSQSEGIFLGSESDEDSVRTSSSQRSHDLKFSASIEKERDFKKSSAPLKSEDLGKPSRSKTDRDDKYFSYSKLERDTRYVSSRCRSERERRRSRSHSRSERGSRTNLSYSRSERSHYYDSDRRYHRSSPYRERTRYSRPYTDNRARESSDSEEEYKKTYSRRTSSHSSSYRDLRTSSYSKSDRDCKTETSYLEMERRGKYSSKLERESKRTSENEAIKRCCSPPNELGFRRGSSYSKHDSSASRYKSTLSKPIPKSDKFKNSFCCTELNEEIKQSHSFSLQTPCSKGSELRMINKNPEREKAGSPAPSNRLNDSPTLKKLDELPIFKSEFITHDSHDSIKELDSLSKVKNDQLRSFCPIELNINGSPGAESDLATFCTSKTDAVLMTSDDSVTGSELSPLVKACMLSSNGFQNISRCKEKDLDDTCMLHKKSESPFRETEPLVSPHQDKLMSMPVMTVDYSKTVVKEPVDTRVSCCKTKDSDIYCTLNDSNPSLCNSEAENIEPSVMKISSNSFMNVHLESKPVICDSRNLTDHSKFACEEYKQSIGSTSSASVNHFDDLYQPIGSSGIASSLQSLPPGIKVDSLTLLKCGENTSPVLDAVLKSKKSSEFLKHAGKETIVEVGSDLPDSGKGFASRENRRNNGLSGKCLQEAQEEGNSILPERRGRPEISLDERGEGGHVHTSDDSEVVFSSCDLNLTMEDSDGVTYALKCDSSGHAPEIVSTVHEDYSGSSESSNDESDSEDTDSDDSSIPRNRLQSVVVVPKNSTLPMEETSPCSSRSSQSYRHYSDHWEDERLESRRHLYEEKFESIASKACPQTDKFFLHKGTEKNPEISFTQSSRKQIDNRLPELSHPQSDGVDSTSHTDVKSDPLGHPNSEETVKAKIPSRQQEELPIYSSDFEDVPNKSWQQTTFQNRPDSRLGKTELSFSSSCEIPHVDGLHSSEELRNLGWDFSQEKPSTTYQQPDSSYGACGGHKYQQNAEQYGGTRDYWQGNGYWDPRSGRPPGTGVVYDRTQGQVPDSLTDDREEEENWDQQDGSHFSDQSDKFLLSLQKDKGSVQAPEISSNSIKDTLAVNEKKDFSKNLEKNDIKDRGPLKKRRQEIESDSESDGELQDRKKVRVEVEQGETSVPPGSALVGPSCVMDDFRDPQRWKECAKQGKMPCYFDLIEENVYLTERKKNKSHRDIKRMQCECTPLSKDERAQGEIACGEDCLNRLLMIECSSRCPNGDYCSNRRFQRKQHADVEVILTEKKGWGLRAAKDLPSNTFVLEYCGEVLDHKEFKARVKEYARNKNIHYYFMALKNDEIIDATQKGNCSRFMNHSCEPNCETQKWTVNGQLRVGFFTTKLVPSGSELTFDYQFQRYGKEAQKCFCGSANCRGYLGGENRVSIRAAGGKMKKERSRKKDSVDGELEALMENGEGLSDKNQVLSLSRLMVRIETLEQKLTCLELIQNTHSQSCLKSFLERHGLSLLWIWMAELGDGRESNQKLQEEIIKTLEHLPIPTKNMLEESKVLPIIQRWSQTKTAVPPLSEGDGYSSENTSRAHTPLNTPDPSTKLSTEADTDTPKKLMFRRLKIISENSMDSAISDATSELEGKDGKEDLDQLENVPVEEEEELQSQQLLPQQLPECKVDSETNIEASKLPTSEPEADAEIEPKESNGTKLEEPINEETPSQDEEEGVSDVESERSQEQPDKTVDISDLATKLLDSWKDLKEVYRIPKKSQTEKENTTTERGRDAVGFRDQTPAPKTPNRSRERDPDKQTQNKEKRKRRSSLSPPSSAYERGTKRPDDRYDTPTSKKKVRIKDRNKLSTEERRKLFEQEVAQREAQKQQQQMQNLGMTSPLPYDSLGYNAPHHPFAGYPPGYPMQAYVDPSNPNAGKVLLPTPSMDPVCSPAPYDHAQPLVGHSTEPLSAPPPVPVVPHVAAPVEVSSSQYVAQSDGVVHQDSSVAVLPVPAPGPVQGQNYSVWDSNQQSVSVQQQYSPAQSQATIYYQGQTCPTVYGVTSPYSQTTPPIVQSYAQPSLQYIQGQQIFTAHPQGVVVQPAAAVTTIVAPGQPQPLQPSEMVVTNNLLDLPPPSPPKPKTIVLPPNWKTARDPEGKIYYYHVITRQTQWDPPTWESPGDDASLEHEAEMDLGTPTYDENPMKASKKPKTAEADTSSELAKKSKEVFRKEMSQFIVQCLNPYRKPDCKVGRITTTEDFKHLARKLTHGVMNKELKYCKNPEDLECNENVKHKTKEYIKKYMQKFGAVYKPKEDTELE
Sequence of Ribosomal protein S6 kinase alpha-4 (Homo sapiens) (O75676 whole entry, looked up): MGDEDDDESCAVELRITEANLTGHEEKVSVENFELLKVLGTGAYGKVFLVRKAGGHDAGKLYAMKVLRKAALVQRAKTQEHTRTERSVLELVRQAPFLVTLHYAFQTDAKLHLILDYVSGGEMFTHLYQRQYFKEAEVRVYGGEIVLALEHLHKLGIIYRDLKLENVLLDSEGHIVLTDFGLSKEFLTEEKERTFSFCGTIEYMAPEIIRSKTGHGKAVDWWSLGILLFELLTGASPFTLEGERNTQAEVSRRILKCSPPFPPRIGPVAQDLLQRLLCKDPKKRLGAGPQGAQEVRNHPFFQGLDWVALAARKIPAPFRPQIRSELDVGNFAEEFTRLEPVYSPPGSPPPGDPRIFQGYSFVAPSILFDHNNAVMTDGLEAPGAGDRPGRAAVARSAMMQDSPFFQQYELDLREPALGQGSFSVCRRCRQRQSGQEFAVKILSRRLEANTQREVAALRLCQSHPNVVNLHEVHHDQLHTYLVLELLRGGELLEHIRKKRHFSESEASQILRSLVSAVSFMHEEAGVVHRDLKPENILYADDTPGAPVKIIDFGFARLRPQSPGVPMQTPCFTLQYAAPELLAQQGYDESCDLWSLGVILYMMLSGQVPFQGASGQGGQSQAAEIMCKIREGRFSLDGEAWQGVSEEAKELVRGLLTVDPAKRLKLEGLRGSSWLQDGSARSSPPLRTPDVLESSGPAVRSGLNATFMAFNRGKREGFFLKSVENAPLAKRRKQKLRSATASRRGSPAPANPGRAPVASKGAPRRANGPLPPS
Sequence of Tyrosine-protein kinase CSK (Homo sapiens) (P41240 2-450 limits assumed): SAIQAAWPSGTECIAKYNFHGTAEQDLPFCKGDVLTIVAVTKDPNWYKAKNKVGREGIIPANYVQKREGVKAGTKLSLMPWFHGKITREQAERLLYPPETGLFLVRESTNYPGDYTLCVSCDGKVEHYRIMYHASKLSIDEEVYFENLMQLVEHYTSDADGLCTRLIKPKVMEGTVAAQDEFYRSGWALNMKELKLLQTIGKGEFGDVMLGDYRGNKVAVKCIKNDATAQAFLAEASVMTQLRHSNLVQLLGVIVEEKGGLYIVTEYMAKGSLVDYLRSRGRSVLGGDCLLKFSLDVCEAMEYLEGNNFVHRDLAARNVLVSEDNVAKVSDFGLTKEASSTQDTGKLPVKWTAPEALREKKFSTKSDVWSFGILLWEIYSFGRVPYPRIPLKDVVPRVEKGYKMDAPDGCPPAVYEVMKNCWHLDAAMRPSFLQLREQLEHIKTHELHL
Sequence of Serine/threonine-protein kinase/endoribonuclease IRE1 (Homo sapiens) (O75460 19-977 limits assumed): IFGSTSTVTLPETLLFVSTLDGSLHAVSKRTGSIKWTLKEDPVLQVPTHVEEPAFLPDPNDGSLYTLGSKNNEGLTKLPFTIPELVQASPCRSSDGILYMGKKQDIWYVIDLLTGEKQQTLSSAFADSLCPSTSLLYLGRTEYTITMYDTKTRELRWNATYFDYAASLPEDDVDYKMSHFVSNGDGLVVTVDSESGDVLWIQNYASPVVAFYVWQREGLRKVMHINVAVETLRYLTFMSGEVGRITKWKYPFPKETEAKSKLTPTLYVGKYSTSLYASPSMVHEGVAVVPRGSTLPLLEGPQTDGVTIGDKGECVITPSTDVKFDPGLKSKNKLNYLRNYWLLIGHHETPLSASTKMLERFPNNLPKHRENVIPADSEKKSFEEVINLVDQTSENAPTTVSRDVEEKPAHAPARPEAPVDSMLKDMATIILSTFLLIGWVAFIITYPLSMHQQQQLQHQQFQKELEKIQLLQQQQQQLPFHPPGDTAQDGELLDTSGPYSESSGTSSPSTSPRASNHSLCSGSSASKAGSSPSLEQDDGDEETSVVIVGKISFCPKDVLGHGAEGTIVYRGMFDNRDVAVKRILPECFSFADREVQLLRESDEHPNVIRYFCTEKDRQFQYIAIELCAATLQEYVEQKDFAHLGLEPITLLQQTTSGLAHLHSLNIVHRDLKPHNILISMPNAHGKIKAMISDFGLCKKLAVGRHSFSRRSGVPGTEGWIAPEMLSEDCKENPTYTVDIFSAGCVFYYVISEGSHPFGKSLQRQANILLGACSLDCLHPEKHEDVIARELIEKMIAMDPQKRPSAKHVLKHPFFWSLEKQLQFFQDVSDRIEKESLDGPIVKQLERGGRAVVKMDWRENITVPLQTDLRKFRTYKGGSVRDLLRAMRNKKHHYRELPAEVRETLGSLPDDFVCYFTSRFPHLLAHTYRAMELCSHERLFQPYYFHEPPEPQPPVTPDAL
Sequence of Serine/threonine-protein kinase pim-2 (Q9P1W9 whole entry, looked up): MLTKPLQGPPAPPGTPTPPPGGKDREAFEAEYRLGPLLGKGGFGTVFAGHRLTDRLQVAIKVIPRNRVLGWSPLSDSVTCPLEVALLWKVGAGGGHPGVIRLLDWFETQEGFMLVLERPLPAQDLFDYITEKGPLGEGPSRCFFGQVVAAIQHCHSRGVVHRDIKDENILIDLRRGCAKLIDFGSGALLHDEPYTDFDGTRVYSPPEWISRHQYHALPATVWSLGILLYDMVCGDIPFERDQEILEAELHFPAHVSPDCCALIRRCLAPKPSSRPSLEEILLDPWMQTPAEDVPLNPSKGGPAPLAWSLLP

`Cc1cc(C)cc([C@@H]2c3cc(C)ccc3NC(=O)CN2C(=O)c2ccc(Br)s2)c1`: the % of activity was 104% in assay [1] (at 1 µM) and 101% in [1] (at 10 µM).

Regarding `CNC(=O)Nc1ccc(-c2nc(N3CC4CCC(C3)O4)c3cnn(C4CCC5(CC4)OCCO5)c3n2)cc1`, the % of control in assay [2] amounted to 93%. Regarding `Cc1cc([C@@H](C)Nc2ccccc2C(=O)O)c2nc(N3CCOCC3)cc(=O)n2c1` [AZD-6482], the % of control was 70% in assay [3] and 100% in [4]. With `CCN(CC)CCCCNc1ncc2cc(-c3cc(OC)cc(OC)c3)c(NC(=O)NC(C)(C)C)nc2n1`, in [5], the % of control worked out at 100%. On to `COc1cc(Nc2nc(C)cc(-c3cnn4nc(OC)ccc34)n2)cc(C(F)(F)F)c1`, for which the % of control in [6] is 100%. Regarding `C=CC(=O)Nc1cccc(C(=O)Nc2ccc(Nc3cc(-c4[nH]c(SC)nc4C)ccn3)cc2)c1`, the values for the % of control in assay [7] (at 1 µM) and in [7] (at 5 µM) were 97% and 94%, respectively. Take `C=CC(=O)Nc1cc(-n2c(=O)ccc3cnc4ccc(-c5ccc(NS(C)(=O)=O)cc5)cc4c32)ccc1C`: the values for the % of control in [8] (at 1 µM) and in [8] (at 10 µM) were 84% and 64%, respectively. Consider `Cc1ccc(-c2ccc3c(ccc4sc5c(c43)NC[C@@H](C)NC5=O)n2)cn1`, for which, in [9], the % of inhibition was -8%.
